The text below walks through data of PubChem BioAssay AID1259407 (Chemical Carcinogenesis Research Information System (CCRIS), 2018).

The test system of this data set is CCRIS mutagenicity, Ames/micronucleus/aberration tests. The experiment in a line: CCRIS mutagenicity studies.
[1] abbreviates: Test System: AMES SALMONELLA TYPHIMURIUM, Strain/Indicator: TA98, Metabolic Activation: NONE, Method: STANDARD PLATE.
The mark [2] stands for this setting: Test System: AMES SALMONELLA TYPHIMURIUM, Strain/Indicator: TA100, Metabolic Activation: NONE, Method: STANDARD PLATE.
Where [3] appears, read: Test System: AMES SALMONELLA TYPHIMURIUM, Strain/Indicator: TA1535, Metabolic Activation: NONE, Method: STANDARD PLATE.
Setting [4] is: Test System: AMES SALMONELLA TYPHIMURIUM, Strain/Indicator: TA1537, Metabolic Activation: NONE, Method: STANDARD PLATE.
[5] abbreviates: Test System: AMES SALMONELLA TYPHIMURIUM, Strain/Indicator: TA1538, Metabolic Activation: NONE, Method: STANDARD PLATE.
[6] abbreviates: Test System: AMES SALMONELLA TYPHIMURIUM, Strain/Indicator: TA98, Metabolic Activation: NONE, Method: PREINCUBATION
Setting [7] is: Test System: AMES SALMONELLA TYPHIMURIUM, Strain/Indicator: TA100, Metabolic Activation: NONE, Method: PREINCUBATION
Where [8] appears, read: Test System: AMES SALMONELLA TYPHIMURIUM, Strain/Indicator: TA1535, Metabolic Activation: NONE, Method: PREINCUBATION
[9] abbreviates: Test System: AMES SALMONELLA TYPHIMURIUM, Strain/Indicator: TA1537, Metabolic Activation: NONE, Method: PREINCUBATION

Molecules are shown by their SMILES. Active and inactive are the calls of the source. The rule behind the calls is not given here.

Take `N=C1CCC(=N)c2c1c(O)c1ccccc1c2O`: the mutagenic call was “inactive; negative” under setting [1]; “inactive; negative” under setting [2]; “inactive; negative” (Test System: AMES SALMONELLA TYPHIMURIUM, Strain/Indicator: TA100, Metabolic Activation: RAT, LIVER, S-9, AROCLOR 1254, Method: STANDARD PLATE); “inactive; negative” under setting [3]; “inactive; negative” (Test System: AMES SALMONELLA TYPHIMURIUM, Strain/Indicator: TA1535, Metabolic Activation: RAT, LIVER, S-9, AROCLOR 1254, Method: STANDARD PLATE); “active; positive” under setting [4]. Also, the mutagenic call (Test System: AMES SALMONELLA TYPHIMURIUM, Strain/Indicator: TA1537, Metabolic Activation: RAT, LIVER, S-9, AROCLOR 1254, Method: STANDARD PLATE) is “active; positive”; the mutagenic call under setting [5] was “inactive; negative”; the mutagenic call (Test System: AMES SALMONELLA TYPHIMURIUM, Strain/Indicator: TA1538, Metabolic Activation: RAT, LIVER, S-9, AROCLOR 1254, Method: STANDARD PLATE) is “inactive; negative”.

Turning to `O=Nc1c(-c2ccc(Cl)cc2)nc2sccn12`, the mutagenic call is, setting by setting: under setting [1], “inactive; negative”; under setting [2], “inactive; negative”; under setting [3], “inactive; negative”; under setting [4], “active; positive”; under setting [5], “active; positive”.

As to `[N-]=[N+]=O`, under “Test System: CHINESE HAMSTER V-79, Strain/Indicator: V-79/8-AZAGUANINE, Metabolic Activation: NONE, Method: STANDARD PLATE”, the mutagenic call is “active; positive”.

Take `CCCCCCCCCCCCCCCC(=O)O`: the mutagenic call is “inactive; negative” under setting [6]; “inactive; negative” (Test System: AMES SALMONELLA TYPHIMURIUM, Strain/Indicator: TA98, Metabolic Activation: RAT LIVER S-9, PHENOBARBITAL AND BETA-NAPHTHOFLAVONE, Method: PREINCUBATION); “inactive; negative” under setting [7]; “inactive; negative” (Test System: AMES SALMONELLA TYPHIMURIUM, Strain/Indicator: TA100, Metabolic Activation: RAT LIVER S-9, PHENOBARBITAL AND BETA-NAPHTHOFLAVONE, Method: PREINCUBATION); “inactive; negative” under setting [8]; “inactive; negative” (Test System: AMES SALMONELLA TYPHIMURIUM, Strain/Indicator: TA1535, Metabolic Activation: RAT LIVER S-9, PHENOBARBITAL AND BETA-NAPHTHOFLAVONE, Method: PREINCUBATION). Moreover, the mutagenic call by setting is: under setting [9], “inactive; negative”; (Test System: AMES SALMONELLA TYPHIMURIUM, Strain/Indicator: TA1537, Metabolic Activation: RAT LIVER S-9, PHENOBARBITAL AND BETA-NAPHTHOFLAVONE, Method: PREINCUBATION) “inactive; negative”; (Test System: E.COLI, Strain/Indicator: WP2UVRA/PKM101, Metabolic Activation: NONE, Method: PREINCUBATION) “inactive; negative”; (Test System: E.COLI, Strain/Indicator: WP2UVRA/PKM101, Metabolic Activation: RAT LIVER S-9, PHENOBARBITAL AND BETA-NAPHTHOFLAVONE, Method: PREINCUBATION) “inactive; negative”.

In the case of `CN=NNc1ccc(C(=O)O)cc1`, the mutagenic call is “active; positive” (Test System: AMES SALMONELLA TYPHIMURIUM, Strain/Indicator: TA92, Metabolic Activation: NONE, Method: STANDARD PLATE) and “active; positive” (Test System: E. COLI B, Strain/Indicator: TM9, Metabolic Activation: NONE, Method: STANDARD PLATE).

Regarding `O=[N+]([O-])c1c(O)cc2c3c(cccc13)-c1ccccc1-2`, the mutagenic call was “active; positive” under setting [1] and “active; positive” (Test System: AMES SALMONELLA TYPHIMURIUM, Strain/Indicator: TA98, Metabolic Activation: RAT, LIVER, S-9, AROCLOR 1254, Method: STANDARD PLATE).

As for `O=C/C=C/C=C/CO`, the mutagenic call (Test System: CHINESE HAMSTER V-79, Strain/Indicator: V-79 (HGPRT)/8-AZAGUANINE, Metabolic Activation: NONE) is “active; positive”.

In the case of `C=C(C)[C@H]1CC=C(C)C(=O)C1`, the mutagenic call reads like this: (Test System: AMES SALMONELLA TYPHIMURIUM, Strain/Indicator: TA98, Metabolic Activation: HAMSTER, LIVER, S-9, AROCLOR 1254, Method: PREINCUBATION) “inactive; negative”; under setting [6], “inactive; negative”; (Test System: AMES SALMONELLA TYPHIMURIUM, Strain/Indicator: TA98, Metabolic Activation: RAT, LIVER, S-9, AROCLOR 1254, Method: PREINCUBATION) “inactive; negative”; (Test System: AMES SALMONELLA TYPHIMURIUM, Strain/Indicator: TA100, Metabolic Activation: HAMSTER, LIVER, S-9, AROCLOR 1254, Method: PREINCUBATION) “inactive; negative”; under setting [7], “inactive; negative”; (Test System: AMES SALMONELLA TYPHIMURIUM, Strain/Indicator: TA100, Metabolic Activation: RAT, LIVER, S-9, AROCLOR 1254, Method: PREINCUBATION) “inactive; negative”. The mutagenic call by setting is: (Test System: AMES SALMONELLA TYPHIMURIUM, Strain/Indicator: TA1535, Metabolic Activation: HAMSTER, LIVER, S-9, AROCLOR 1254, Method: PREINCUBATION) “inactive; negative”; under setting [8], “inactive; negative”; (Test System: AMES SALMONELLA TYPHIMURIUM, Strain/Indicator: TA1535, Metabolic Activation: RAT, LIVER, S-9, AROCLOR 1254, Method: PREINCUBATION) “inactive; negative”; (Test System: AMES SALMONELLA TYPHIMURIUM, Strain/Indicator: TA1537, Metabolic Activation: HAMSTER, LIVER, S-9, AROCLOR 1254, Method: PREINCUBATION) “inactive; negative”; under setting [9], “inactive; negative”; (Test System: AMES SALMONELLA TYPHIMURIUM, Strain/Indicator: TA1537, Metabolic Activation: RAT, LIVER, S-9, AROCLOR 1254, Method: PREINCUBATION) “inactive; negative”.

For `OCc1ccc2ccc3cccc4ccc1c2c34`, the mutagenic call (Test System: AMES SALMONELLA TYPHIMURIUM, Strain/Indicator: TA98, Metabolic Activation: HUMAN, LIVER, CYTOSOL, PAPS, Method: PREINCUBATION) was “active; positive”; the mutagenic call under setting [6] is “inactive; negative”; the mutagenic call (Test System: AMES SALMONELLA TYPHIMURIUM, Strain/Indicator: TA98, Metabolic Activation: RAT, LIVER, CYTOSOL, KCL, Method: PREINCUBATION) is “inactive; negative”; the mutagenic call (Test System: AMES SALMONELLA TYPHIMURIUM, Strain/Indicator: TA98, Metabolic Activation: RAT, LIVER, CYTOSOL, PAPS, KCL, Method: PREINCUBATION) is “active; positive”; the mutagenic call (Test System: AMES SALMONELLA TYPHIMURIUM, Strain/Indicator: TA98, Metabolic Activation: RAT, LIVER, CYTOSOL, PAPS, Method: PREINCUBATION) is “active; positive”; the mutagenic call (Test System: AMES SALMONELLA TYPHIMURIUM, Strain/Indicator: TA98, Metabolic Activation: RAT, LIVER, PAPS, KCL, Method: PREINCUBATION) was “inactive; negative”. Further, the mutagenic call is, setting by setting: (Test System: AMES SALMONELLA TYPHIMURIUM, Strain/Indicator: TA98, Metabolic Activation: RAT, LIVER, S-9, NADPH, Method: PREINCUBATION) “active; positive”; (Test System: UDS CHINESE HAMSTER V-79 CELLS, Metabolic Activation: NONE, Method: AUTORADIOGRAPHY) “active; positive”; (Test System: UDS CHINESE HAMSTER V-79 CELLS, Strain/Indicator: V-79-MZ/CYTIDINE INCORPORATION, Metabolic Activation: NONE, Method: AUTORADIOGRAPHY) “inactive; negative”; (Test System: UDS CHINESE HAMSTER V-79 CELLS, Strain/Indicator: V-79-RHST20/CYTIDINE INCORPORATION, Metabolic Activation: NONE, Method: AUTORADIOGRAPHY) “active; positive”; (Test System: UDS CHINESE HAMSTER V-79 CELLS, Strain/Indicator: V-79-RHSTA/CYTIDINE INCORPORATION, Metabolic Activation: NONE, Method: AUTORADIOGRAPHY) “active; positive”; (Test System: UDS CHINESE HAMSTER V-79 CELLS, Strain/Indicator: V-79-RPST-IV/CYTIDINE INCORPORATION, Metabolic Activation: NONE, Method: AUTORADIOGRAPHY) “active; positive”.

Turning to `Cc1ccc(NC(=O)CBr)cc1`, the mutagenic call was “inactive; negative” (Test System: AMES SALMONELLA TYPHIMURIUM, Strain/Indicator: TA100, Metabolic Activation: MOUSE, LIVER, S-9, AROCLOR 1254, Method: STANDARD PLATE) and “inactive; negative” under setting [2].
